{
  "source": "patent US10363227B2",
  "about": "“Pharmaceutical formulation for use in the treatment and/or prevention of restenosis” (Centre Hospitalier Universitaire Vaudois (C.H.U.V.), priority 2013, dated 2019)",
  "key": {"[1]": {"test_system": "hVSMCs", "experiment": "mRNA levels in hVSMCs (PAI-1, MMP2, Cx43, tPA, HMOX)", "assay_type": "cell-based, human", "conditions": "ATV directly added in the medium, 24 hours incubation", "procedure": "FIG. 6: Analysis of transcripts and proteins of hVSMC. Measurements of various mRNAs levels in hVSMCs in presence of ATV directly added in the medium were performed. PAI-1 and MMP2 and Cx43 mRNA levels were decreased whereas tPA and HMOX transcripts were increased after 24 hours incubation.\n(§1) To that end, experiments on the influence of the drug on migration and transmigration of the hVSMC and the expression of different mRNAs of proteins involved in the cellular invasivity were performed."}, "[2]": {"test_system": "Primary hVSMCs", "experiment": "hVSMC migration, silicon culture inserts with cell free gap", "assay_type": "cell-based, human", "procedure": "as §1"}, "[3]": {"test_system": "human vascular smooth muscle cells (hVSMC)", "experiment": "hVSMC viability, MTT test", "assay_type": "cell-based"}},
  "data": [
    {"smiles": "CC(C)c1c(C(=O)Nc2ccccc2)c(-c2ccccc2)c(-c2ccc(F)cc2)n1CC[C@@H](O)C[C@@H](O)CC(=O)O", "note": "[ATV, Atorvastatin]", "values": [
      {"measurement": "Cx43 mRNA level", "setting": "[1]", "value": "decreased"},
      {"measurement": "HMOX transcript level", "setting": "[1]", "value": "increased"},
      {"measurement": "MMP2 mRNA level", "setting": "[1]", "value": "decreased"},
      {"measurement": "PAI-1 mRNA level", "setting": "[1]", "value": "decreased"},
      {"measurement": "tPA transcript level", "setting": "[1]", "value": "increased"},
      {"measurement": "time at which inhibition of cell migration was observed", "setting": "[2]; 5 μM ATV directly added to the culture medium", "value": 36, "unit": "h"},
      {"measurement": "time at which inhibition of cell migration was observed", "setting": "[2]; 10 μM ATV directly added to the culture medium", "value": 24, "unit": "h"},
      {"measurement": "hVSMC migration into cell free gap", "setting": "[2]; 5 and 10 μM ATV", "value": "decreased"},
      {"measurement": "time of viability reduction", "setting": "[3]; 5 μM ATV", "value": 72, "unit": "h"},
      {"measurement": "time of viability reduction", "setting": "[3]; 10 μM ATV", "value": 24, "unit": "h"},
      {"measurement": "viability of hVSMCs (MTT test)", "setting": "[3]; 5-10 μM ATV, P<0.05 versus cells without ATV", "value": "significantly reduced"},
      {"measurement": "proliferation of human SMC", "setting": "[3]; primary culture at passage 2-5", "value": "decreased"}
    ]}
  ]
}
